Laboratory results from US20230373930A1, “AMINOIMIDAZOLE FPR2 AGONISTS” (BRISTOL-MYERS SQUIBB COMPANY, priority 2020, published 2023).

Experiments:
human FPR1 = target: T1, human FPR1 (Homo sapiens, UniProt P21462); assay: FPR1 cyclic adenosine monophosphate (cAMP) assay; type: cell-based; details: CHO cells overexpressing human FPR1; forskolin 10 μM; inhibition of cAMP production; HTRF; read-out: hFPR1 cAMP2 EC50
T1 sequence (P21462 1-350): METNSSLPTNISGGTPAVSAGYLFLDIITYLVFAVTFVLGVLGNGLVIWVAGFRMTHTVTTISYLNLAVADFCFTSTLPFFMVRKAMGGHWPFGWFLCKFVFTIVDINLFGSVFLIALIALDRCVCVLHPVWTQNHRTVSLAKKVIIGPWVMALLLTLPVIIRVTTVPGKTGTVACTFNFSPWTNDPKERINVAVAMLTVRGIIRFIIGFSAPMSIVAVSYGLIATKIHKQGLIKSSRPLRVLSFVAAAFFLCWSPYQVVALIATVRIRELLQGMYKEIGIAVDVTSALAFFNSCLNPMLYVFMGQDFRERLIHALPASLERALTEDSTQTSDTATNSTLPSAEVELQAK
Protocol: (§1) FPR2 and FPR1 Cyclic Adenosine Monophosphate (cAMP) Assays. A mixture of forskolin (5 μM final for FPR2 or 10 μM final for FPR1) and IBMX (200 μM final) were added to 384-well Proxiplates (Perkin-Elmer) pre-dotted with test compounds in DMSO (1% final) at final concentrations in the range of 0.020 nM to 100 μM. Chinese Hamster Ovary cells (CHO) overexpressing human FPR1 or human FPR2 receptors were cultured in F-12 (Ham's) medium supplemented with 10% qualified FBS, 250 μg/ml zeocin and 300 μg/ml hygromycin (Life Technologies). Reactions were initiated by adding 2,000 human FPR2 cells per well or 4,000 human FPR1 cells per well in Dulbecco's PBS (with calcium and magnesium) (Life Technologies) supplemented with 0.1% BSA (Perkin-Elmer). The reaction mixtures were incubated for 30 min at room temperature. The level of intracellular cAMP was determined using the HTRF HiRange cAMP assay reagent kit (Cisbio) according to manufacturer's instruction. Solutions of cryptate conjugated anti-cAMP and d2 flurorophore-labelled cAMP were made in a supplied lysis buffer separately. Upon completion of the reaction, the cells were lysed with equal volume of the d2-cAMP solution and anti-cAMP solution. After a 1-h room temperature incubation, time-resolved fluorescence intensity was measured using the Envision (Perkin-Elmer) at 400 nm excitation and dual emission at 590 nm and 665 nm. A calibration curve was constructed with an external cAMP standard at concentrations ranging from 1 μM to 0.1 μM by plotting the fluorescent intensity ratio from 665 nm emission to the intensity from the 590 nm emission against cAMP concentrations. The potency and activity of a compound to inhibit cAMP production was then determined by fitting to a 4-parametric logistic equation from a plot of cAMP level versus compound concentrations.

human FPR2 = target: T2, human FPR2 (Homo sapiens, UniProt P25090); assay: FPR2 cyclic adenosine monophosphate (cAMP) assay; type: cell-based; details: CHO cells overexpressing human FPR2; forskolin 5 μM; inhibition of cAMP production; HTRF; read-out: hFPR2 cAMP2 EC50
T2 sequence (P25090 1-351): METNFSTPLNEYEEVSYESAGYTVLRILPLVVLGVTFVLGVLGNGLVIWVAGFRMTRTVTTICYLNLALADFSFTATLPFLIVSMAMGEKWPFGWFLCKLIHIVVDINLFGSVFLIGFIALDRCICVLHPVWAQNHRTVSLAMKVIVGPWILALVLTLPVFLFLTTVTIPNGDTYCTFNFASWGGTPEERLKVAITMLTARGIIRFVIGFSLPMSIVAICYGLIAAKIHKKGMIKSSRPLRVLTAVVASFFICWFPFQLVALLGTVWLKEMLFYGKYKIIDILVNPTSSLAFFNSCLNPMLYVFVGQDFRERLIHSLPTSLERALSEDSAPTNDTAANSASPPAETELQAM
Protocol: as §1

Compound | EC50 (human FPR1) [nM] | EC50 (human FPR2) [nM]
COc1ccc(-n2cc(-c3cc4cc(Cl)ccc4o3)nc2NC(=O)c2ccc(OC(F)F)cc2)cc1 [Example 26, N-[4-(5-Chloro-1-benzofuran-2-yl)-1-(4-methoxyphenyl)-1H-imidazol-2-yl]-4-(difluoromethoxy)benzamide] | 400 | 72
COc1ccc(-n2cc(C34CC5CC(CC(C5)C3)C4)nc2NC(=O)c2ccc(OC(F)F)cc2)cc1 [Example 31, N-[4-(Adamantan-1-yl)-1-(4-methoxyphenyl)-1H-imidazol-2-yl]-4-(difluoromethoxy)benzamide] | > 10000 | 320
COc1cc(F)c(-n2cc(-c3ccccc3F)nc2NC(=O)c2ccc(OC(F)F)cc2)c(F)c1 [Example 33, N-[1-(2,6-Difluoro-4-methoxyphenyl)-4-(2-fluorophenyl)-1H-imidazol-2-yl]-4-(difluoromethoxy)benzamide] | 940 | 39
COc1cc(F)c(-n2cc(-c3ccnc(Cl)c3)nc2NC(=O)c2ccc(OC(F)F)cc2)c(F)c1 [Example 34, N-[4-(2-Chloropyridin-4-yl)-1-(2,6-difluoro-4-methoxyphenyl)-1H-imidazol-2-yl]-4-(difluoromethoxy)benzamide] | 120 | 16
COc1cc(F)c(-n2cc(CC(C)C)nc2NC(=O)c2ccc(OC(F)F)cc2)c(F)c1 [Example 35, N-[1-(2,6-Difluoro-4-methoxyphenyl)-4-(2-methylpropyl)-1H-imidazol-2-yl]-4-(difluoromethoxy)benzamide] | 1400 | 99
COc1cc(F)c(-n2cc(-c3ccc(F)c(F)c3)nc2NC(=O)c2ccc(OC(F)F)cc2)c(F)c1 [Example 36, N-[1-(2,6-Difluoro-4-methoxyphenyl)-4-(3,4-difluorophenyl)-1H-imidazol-2-yl]-4-(difluoromethoxy)benzamide] | 320 | 31
COc1cc(F)c(-n2cc(C3CC3)nc2NC(=O)c2ccc(OC(F)F)cc2)c(F)c1 [Example 37, N-[4-Cyclopropyl-1-(2,6-difluoro-4-methoxyphenyl)-1H-imidazol-2-yl]-4-(difluoromethoxy)benzamide] | 800 | 16
CCOC(=O)c1cn(-c2c(F)cc(OC)cc2F)c(NC(=O)c2ccc(OC(F)F)cc2)n1 [Example 38, Ethyl 1-(2,6-difluoro-4-methoxyphenyl)-2-[4-(difluoromethoxy)benzamido]-1H-imidazole-4-carboxylate] | 620 | 15
CCc1cn(-c2c(F)cc(OC)cc2F)c(NC(=O)c2ccc(OC(F)F)cc2)n1 [Example 39, N-[1-(2,6-Difluoro-4-methoxyphenyl)-4-ehtyl-1H-imidazol-2-yl]-4-(difluoromethoxy)benzamide] | 1000 | 21
COc1cc(F)c(-n2cc(-c3nccs3)nc2NC(=O)c2ccc(OC(F)F)cc2)c(F)c1 [Example 40, N-[1-(2,6-Difluoro-4-methoxyphenyl)-4-(1,3-thiazol-2-yl)-1H-imidazol-2-yl]-4-(difluoromethoxy)benzamide] | 1000 | 11
COc1cc(F)c(-n2cc(C3CCOCC3)nc2NC(=O)c2ccc(OC(F)F)cc2)c(F)c1 [Example 41, N-[1-(2,6-Difluoro-4-methoxyphenyl)-4-(oxan-4-yl)-1H-imdiazol-2-yl]-4-(difluoromethoxy)benzamide] | 230 | 26
COc1cc(F)c(-n2cc(C(=O)NCc3cc[nH]n3)nc2NC(=O)c2ccc(OC(F)F)cc2)c(F)c1 [Example 44, 1-(2,6-Difluoro-4-methoxyphenyl)-2-[4-(difluoromethoxy)benzamido]-N-[(1H-pyrazol-3-yl)methyl]-1H-imidazole-4-carboxamide] | 370 | 48
COc1cc(F)c(-n2cc(C(=O)NCc3cccnc3)nc2NC(=O)c2ccc(OC(F)F)cc2)c(F)c1 [Example 47, 1-(2,6-Difluoro-4-methoxyphenyl)-2-[4-(difluoromethoxy)benzamido]-N-[(pyridin-3-yl)methyl]-1H-imidazole-4-carboxamide] | 110 | 35
COc1cc(F)c(-n2cc(C(=O)NCc3ccncc3)nc2NC(=O)c2ccc(OC(F)F)cc2)c(F)c1 [Example 48, 1-(2,6-Difluoro-4-methoxyphenyl)-2-[4-(difluoromethoxy)benzamido]-N-[(pyridin-4-yl)methyl]-1H-imidazole-4-carboxamide] | 600 | 110
COc1cc(F)c(-n2cc(C(=O)NC3CCC(O)CC3)nc2NC(=O)c2ccc(OC(F)F)cc2)c(F)c1 (centres unmarked) [Example 49, 1-(2,6-Difluoro-4-methoxyphenyl)-2-[4-(difluoromethoxy)benzamido]-N-(4-hydroxycyclohexyl)-1H-imidazole-4-carboxamide] | 750 | 90

The next lines start with the values.

EC50 (human FPR1) [nM] | EC50 (human FPR2) [nM] | Compound
47 | 6 | COc1ccc(-n2cc(-c3ccccc3F)nc2NC(=O)c2ccc(OC(F)F)cc2)cc1 [Example 25, 4-(Difluoromethoxy)-N-[4-(2-fluorophenyl)-1-(4-methoxyphenyl)-1H-imidazol-2-yl]benzamide]
660 | 55 | COc1ccc(-n2cc(C3CCCCC3)nc2NC(=O)c2ccc(OC(F)F)cc2)cc1 [Example 27, N-[4-Cyclohexyl-1-(4-methoxyphenyl)-1H-imidazol-2-yl]-4-(difluoromethoxy)benzamide]
1030 | 700 | COc1ccc(-n2cc(-c3ccccn3)nc2NC(=O)c2ccc(OC(F)F)cc2)cc1 [Example 28, 4-(Difluoromethoxy)-N-[1-(4-methoxyphenyl)-4-(pyridin-2-yl)-1H-imidazol-2-yl]benzamide]
32 | 15 | CCOC(=O)c1cc(-c2cn(-c3ccc(OC)cc3)c(NC(=O)c3ccc(OC(F)F)cc3)n2)on1 [Example 29, Ethyl 5-{2-[4-(difluoromethoxy)benzamido]-1-(4-methoxyphenyl)-1H-imidazol-4-yl}-1,2-oxazole-3-carboxylate]
100 | 9 | CCOC(=O)c1cn(-c2ccc(OC)cc2)c(NC(=O)c2ccc(OC(F)F)cc2)n1 [Example 30, Ethyl 2-[4-(difluoromethoxy)benzamido]-1-(4-methoxyphenyl)-1H-imidazole-4-carboxylate]
110 | 18 | COc1ccc(-n2cc(C(C)(C)C)nc2NC(=O)c2ccc(OC(F)F)cc2)cc1 [Example 32, N-[4-Tert-butyl-1-(4-methoxyphenyl)-1H-imidazol-2-yl]-4-(difluoromethoxy)benzamide]
57 | 48 | COc1ccc(-n2cc(C(F)(F)C(F)(F)F)nc2NC(=O)c2ccc(OC(F)F)cc2)cc1 [Example 42, 4-(Difluoromethoxy)-N-[1-(4-methoxyphenyl)-4-(1,1,2,2,2-pentafluoroethyl)-1H-imidazol-2-yl]benzamide]
40 | 10 | COc1ccc(-n2cc(C(F)(F)F)nc2NC(=O)c2ccc(OC(F)F)cc2)cc1 [Example 43, 4-(Difluoromethoxy)-N-[1-(4-methoxyphenyl)-4-(trifluoromethyl)-1H-imidazol-2-yl]benzamide]
710 | 14 | COc1ccc(-n2cc(C(=O)N3CCNCC3)nc2NC(=O)c2ccc(OC(F)F)cc2)cc1 [Example 45, 4-(Difluoromethoxy)-N-[1-(4-methoxyphenyl)-4-(piperazine-1-carbonyl)-1H-imidazol-2-yl]benzamide]
210 | 27 | COc1ccc(-n2cc(C(=O)NCCCO)nc2NC(=O)c2ccc(OC(F)F)cc2)cc1 [Example 46, 2-[4-(Difluoromethoxy)benzamido]-N-(3-hydroxypropyl)-1-(4-methoxyphenyl)-1H-imidazole-4-carboxamide]
